Test results: patent US11339156B2, “3-(1H-pyrazol-4-yl)pyridine allosteric modulators of the M4 muscarinic acetylcholine receptor” (Merck Sharp & Dohme Corp., priority 2017, dated 2022)

The molecules below were run against T1, human M4 muscarinic acetylcholine receptor (Homo sapiens, UniProt P08173) (assay: human FLIPR-based M4 PAM assay (CHO-K1 cells with human M4 receptor and Gαqi5, calcium dye fluorescence)). Settings: inflection point of 4 parameter logistic fit; acetylcholine added at 20% of maximum response; read-out: M4PAM IP.
T1 construct: expressed in transfected cells
T1 sequence (P08173 1-479): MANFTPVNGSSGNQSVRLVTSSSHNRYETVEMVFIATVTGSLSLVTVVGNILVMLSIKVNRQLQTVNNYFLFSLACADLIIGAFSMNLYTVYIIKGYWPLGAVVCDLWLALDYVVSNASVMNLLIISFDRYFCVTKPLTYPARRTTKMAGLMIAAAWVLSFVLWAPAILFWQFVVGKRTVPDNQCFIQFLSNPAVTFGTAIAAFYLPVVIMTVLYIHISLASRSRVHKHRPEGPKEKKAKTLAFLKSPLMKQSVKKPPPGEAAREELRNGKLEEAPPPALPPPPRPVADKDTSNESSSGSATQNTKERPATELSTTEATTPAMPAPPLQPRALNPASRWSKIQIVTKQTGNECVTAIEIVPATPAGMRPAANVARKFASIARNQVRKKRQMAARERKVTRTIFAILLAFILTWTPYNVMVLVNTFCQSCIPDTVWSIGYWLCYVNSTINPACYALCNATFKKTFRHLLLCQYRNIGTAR
Assay type: cell-based
Method: In a typical experiment the M4 muscarinic acetylcholine receptor modulating activity of the compounds of the present invention was determined in accordance with the following experimental method. CHO-K1 cells stably transfected with human M4 receptor and chimeric G-protein Gαqi5 (Coward P, et al., Analytical Biochemistry, 270:242-248 (1999)) are thawed from liquid N2 storage, resuspended in growth medium, plated in black, clear bottom 384 well plates, and incubated 16-20 hours at 37° C., 5% CO2. On the day of assay, growth medium is removed, the cells are washed 2 times with wash buffer, and cells are incubated in dye loading buffer at 37° C., 5% CO2 for ˜1 hour. Following dye loading the cell plates are placed in a FLIPR Tetra instrument and while monitoring dye fluorescence (excitation […]), 10 uL of test substance at increasing concentrations is added, and fluorescence values are recorded for 4 min. Next, 10 uL of acetylcholine is added (final concentration calculated so as to achieve 20% of the maximum acetycholine response), and the fluorescence reading is continued for 3.5 min. In some cases, a third addition of acetylcholine (final concentration calculated to achieve 70% of the maximal acetylcholine response) is performed. The resulting dose response curves are fit to a 4 parameter logistic equation and the final result is determined as the inflection point (IP) of the curve
CHO-K1 cells stably transfected with human M4 receptor and chimeric G-protein Gαqi5 are thawed from liquid N2 storage, resuspended in growth medium, plated in black, clear bottom 384 well plates, and incubated 16-20 hours at 37° C., 5% CO2.
On the day of assay, growth medium is removed, the cells are washed 2 times with wash buffer, and cells are incubated in dye loading buffer at 37° C., 5% CO2 for ˜1 h. Following dye loading the cell plates are placed in a FLIPR Tetra instrument and while monitoring dye fluorescence ([…]), 10 uL of test substance at increasing concentrations is added, and fluorescence values are recorded for 4 min. Next, 10 uL of acetylcholine is added (final concentration calculated so as to achieve 20% of the maximum acetycholine response), and the fluorescence reading is continued for 3.5 min. In some cases, a third addition of acetylcholine (final concentration calculated to achieve 70% of the maximal acetylcholine response) is performed.

Compound	EC50 [nM]
CC(C)(C)Cn1cc(-c2ccc(C#N)nc2-c2ccn3cc(Cl)nc3c2)cn1 [Example 67, 6-(2-chloroimidazo[1,2-a]pyridin-7-yl)-5-[1-(2,2-dimethylpropyl)-1H-pyrazol-4-yl]pyridine-2-carbonitrile]	17.7
Cc1cn2ccc(-c3nc(C#N)ccc3-c3cnn(CCC(F)(F)F)c3)cc2n1 [Example 40, 6-(2-methylimidazo[1,2-a]pyridin-7-yl)-5-[1-(3,3,3-trifluoropropyl)-1H-pyrazol-4-yl]pyridine-2-carbonitrile]	141
Cc1nc2cc(-c3ncccc3-c3cnn(CC4(F)CC(F)(F)C4)c3)ccn2n1 [Example 130, 2-methyl-7-(3-(1-((1,3,3-trifluorocyclobutyl)methyl)-1H-pyrazol-4-yl)pyridin-2-yl)-[1,2,4]triazolo[1,5-a]pyridine]	381
Cc1nc2cc(-c3nc(C#N)ccc3-c3cnn(C[C@]4(F)C[C@H](F)C4)c3)ccc2n1C [Example 129, 5-(1-(((1r,3r)-1,3-difluorocyclobutyl)methyl)-1H-pyrazol-4-yl)-6-(1,2-dimethyl-1H-benzo[d]imidazol-5-yl)picolinonitrile]	114
CC(C)(C)Cn1cc(-c2ccc(C#N)nc2-c2ccn3ncnc3c2)cn1 [Example 72, 5-[1-(2,2-dimethylpropyl)-1H-pyrazol-4-yl]-6-[1,2,4]triazolo[1,5-a]pyridin-7-ylpyridine-2-carbonitrile]	136
Cc1nc2cc(-c3nc(C#N)ccc3-c3cnn(CC(C)(C)C(F)(F)F)c3)ccn2n1 [Example 101, 6-(2-methyl[1,2,4]triazolo [1,5-a]pyridin-7-yl)-5-[1-(3,3,3-trifluoro-2,2-dimethylpropyl)-1H-pyrazol-4-yl]pyridine-2-carbonitrile]	58
CN1Cc2ncc(-c3nc(C#N)ccc3-c3cnn(CC(C)(C)C)c3)cc2C1=O [Example 65, 5-[1-(2,2-dimethylpropyl)-1H-pyrazol-4-yl]-6-(6-methyl-5-oxo-6,7-dihydro-5H-pyrrolo[3,4-b]pyridin-3-yl)pyridine-2-carbonitrile]	93.1
Cc1ccc(-c2cnn(CC34CC(C3)C4)c2)c(-c2ccc3c(c2)C(=O)N(C)C3)n1 [Example 7, 6-{3-[1-(bicyclo[1.1.1]pent-1-ylmethyl)-1H-pyrazol-4-yl]-6-methylpyridin-2-yl}-2-methyl-2,3-dihydro-1H-isoindol-1-one]	17.6
Cc1nc2cc(-c3nc(C#N)ccc3-c3cnn(CCC(C)(F)F)c3)ccc2n1C [Example 27, 5-[1-(3,3-difluorobutyl)-1H-pyrazol-4-yl]-6-(1,2-dimethyl-1H-benzimidazol-5-yl)pyridine-2-carbonitrile]	74
Cc1ccc(-c2cnn(CC(C)(C)C)c2)c(-c2ccn3cnnc3c2)n1 [Example 71, 7-{3-[1-(2,2-dimethylpropyl)-1H-pyrazol-4-yl]-6-methylpyridin-2-yl}[1,2,4]triazolo[4,3-a]pyridine]	55.8
Cc1cc(-c2cnn(CC3(C(F)(F)F)CC3)c2)c(-c2ccn3ccnc3c2)nc1Cl [Example 60, 7-[6-chloro-5-methyl-3-(1-{[1-(trifluoromethyl)cyclo-propyl]methyl}-1H-pyrazol-4-yl)pyridin-2-yl]imidazo[1,2-a]pyridine]	64.3
Cc1cn2ccc(-c3nc(C#N)ccc3-c3cnn(CCC(C)(C)C#N)c3)cc2n1 [Example 49, 5-[1-(3-cyano-3-methylbutyl)-1H-pyrazol-4-yl]-6-(2-methylimidazo[1,2-a]pyridin-7-yl)pyridine-2-carbonitrile]	174
N#Cc1ccc(-c2cnn(CCC3CC3)c2)c(-c2ccn3ccnc3c2)n1 [Example 45, 5-[1-(2-cyclopropylethyl)-1H-pyrazol-4-yl]-6-imidazo[1,2-a]pyridin-7-ylpyridine-2-carbonitrile]	35.6
N#Cc1ccc(-c2cnn(CC3CCC3)c2)c(-c2ccn3ccnc3c2)n1 [Example 93, 5-[1-(cyclobutylmethyl)-1H-pyrazol-4-yl]-6-imidazo[1,2-a]pyridin-7-ylpyridine-2-carbonitrile]	27.5
Fc1cc(-c2cnn(CC3(C(F)(F)F)CC3)c2)c(-c2ccn3ccnc3c2)nc1F [Example 53, 7-(5,6-difluoro-3-(1-((1-(trifluoromethyl)cyclopropyl)methyl)-1H-pyrazol-4-yl)pyridin-2-yl)imidazo[1,2-a]pyridine]	234
Cc1cn2ccc(-c3ncccc3-c3cnn(CC4(CC(F)F)CC4)c3)cc2n1 [Example 17, 7-[3-(1-{[1-(2,2-difluoroethyl)cyclo-propyl]methyl}-1H-pyrazol-4-yl)pyridin-2-yl]-2-methylimidazo[1,2-a]pyridine]	277
Cc1cn2ccc(-c3nc(C#N)ccc3-c3cnn(CC(F)C(F)(F)F)c3)cc2n1 (stereo not drawn) [Example 41, 6-(2-methylimidazo[1,2-a]pyridin-7-yl)-5-[1-(2,3,3,3-tetrafluoropropyl)-1H-pyrazol-4-yl]pyridine-2-carbonitrile]	62.2
Cc1nc2cc(-c3nc(C#N)ccc3-c3cnn(CC(C)(C)C(C)(F)F)c3)ccc2n1C [Example 28, 5-[1-(3,3-difluoro-2,2-dimethylbutyl)-1H-pyrazol-4-yl]-6-(1,2-dimethyl-1H-benzimidazol-5-yl)pyridine-2-carbonitrile]	67.4
C#Cc1ccc(-c2cnn(CC(C)(C)C)c2)c(-c2ccn3cc(C)nc3c2)n1 [Example 123, 7-(6-ethynyl-3-(1-neopentyl-1H-pyrazol-4-yl)pyridin-2-yl)-2-methylimidazo[1,2-a]pyridine]	62.3
CSc1cnc(-c2ccc3c(c2)C(=O)NC3)c(-c2cnn(CCC(C)C)c2)c1 [Example 137, 6-(3-(1-isopentyl-1H-pyrazol-4-yl)-5-(methylthio)pyridin-2-yl)isoindolin-1-one]	345
Cc1nc2cc(-c3ncc(F)cc3-c3cnn(CC4CC(F)(F)C4)c3)ccc2n1C [Example 61, 5-(3-(1-((3,3-difluorocyclobutyl)methyl)-1H-pyrazol-4-yl)-5-fluoropyridin-2-yl)-1,2-dimethyl-1H-benzo[d]imidazole]	161
CC(C)(C)Cn1cc(-c2ccc(C#N)nc2-c2ccn3cc(C(F)(F)F)nc3c2)cn1 [Example 66, 5-[1-(2,2-dimethylpropyl)-1H-pyrazol-4-yl]-6-[2-(trifluoromethyl)imidazo [1,2-a]pyridin-7-yl]pyridine-2-carbonitrile]	54.4
Cc1cn2ccc(-c3nc(C#N)ccc3-c3cnn(CC(C)C(F)(F)F)c3)cc2n1 (stereo not drawn) [Example 126, 6-(2-methylimidazo [1,2-a]pyridin-7-yl)-5-(1-(3,3,3-trifluoro-2-methylpropyl)-1H-pyrazol-4-yl)picolinonitrile]	39.1
Cc1cc(-c2cnn(CC3(C(F)(F)F)CC3)c2)c(-c2ccn3ccnc3c2)nc1C [Example 139, 7-[5,6-dimethyl-3-(1-{[1-(trifluoromethyl)cyclopropyl]methyl}-1H-pyrazol-4-yl)pyridin-2-yl]imidazo[1,2-a]pyridine]	162
Cc1cn2ccc(-c3nc(C#N)ccc3-c3cnn(CCC(C)(C)F)c3)cc2n1 [Example 119, 5-[1-(3-fluoro-3-methylbutyl)-1H-pyrazol-4-yl]-6-(2-methylimidazo[1,2-a]pyridin-7-yl)pyridine-2-carbonitrile]	55.9
Cc1cn2ncc(-c3nc(C#N)ccc3-c3cnn(CC(C)(C)C)c3)cc2n1 [Example 88, 5-[1-(2,2-dimethylpropyl)-1H-pyrazol-4-yl]-6-(2-methylimidazo[1,2-b]pyridazin-7-yl)pyridine-2-carbonitrile]	68.7
CC(C)(C#N)Cn1cc(-c2ccc(C#N)nc2-c2ccn3ccnc3c2)cn1 [Example 46, 5-[1-(2-cyano-2-methylpropyl)-1H-pyrazol-4-yl]-6-imidazo[1,2-a]pyridin-7-ylpyridine-2-carbonitrile]	242
